Source: PubChem BioAssay (NCI)
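Abbreviation: GI50, concentration required for 50% inhibition of growth. At the TGI there is no net growth.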

Tests used:
Assay in all cases: DTP human tumour cell line panel, 384-well format
[1] = system: SNB-75 CNS
[2] = system: BT-549 breast
[3] = system: MDA-MB-468 breast
[4] = system: ACHN renal
[5] = system: UO-31 renal
[6] = system: SF-295 CNS
[7] = system: MCF7 breast
[8] = system: HL-60(TB) leukemia
[9] = system: OVCAR-8 ovarian
[10] = system: LOX IMVI melanoma
[11] = system: A549 NSCLC
[12] = system: HS 578T breast
[13] = system: NCI-H226 lung
[14] = system: OVCAR-3 ovarian
[15] = system: HOP-92 NSCLC
[16] = system: SK-OV-3 ovarian
[17] = system: U251 glioblastoma
[18] = system: RPMI-8226 leukemia
[19] = system: HCT-15 colon
[20] = system: A498 renal
[21] = system: CAKI-1 renal
[22] = system: OVCAR-4 ovarian
[23] = system: SK-MEL-5 melanoma
[24] = system: SNB-19 CNS
[25] = system: MDA-MB-435 melanoma
[26] = system: SF-539 CNS
[27] = system: CCRF-CEM leukemia
[28] = system: NCI-H522 lung
[29] = system: UACC-257 melanoma
[30] = system: K-562 leukemia
[31] = system: SW-620 colon
[32] = system: NCI-H23 lung
[33] = system: HCC-2998 colon
[34] = system: DU-145 prostate
[35] = system: MALME-3M melanoma
[36] = system: SF-268 CNS
[37] = system: HOP-62 NSCLC
[38] = system: M14 melanoma
[39] = system: HCT-116 colon
[40] = system: OVCAR-5 ovarian
[41] = system: MDA-MB-231 breast
[42] = system: T-47D breast
[43] = system: COLO 205 colon
[44] = system: SK-MEL-28 melanoma
[45] = system: KM12 colon
[46] = system: IGROV1 ovarian
[47] = system: TK-10 renal
[48] = system: SN12C renal
[49] = system: NCI-H322M lung
[50] = system: HT29 colon
[51] = system: EKVX NSCLC
[52] = system: RXF 393 renal
[53] = system: PC-3 prostate
[54] = system: NCI-H460 NSCLC
[55] = system: SR leukemia
[56] = system: 786-0 renal
[57] = system: MOLT-4 leukemia
[58] = system: NCI/ADR-RES ovarian

C[C@H](Nc1ccc(C#N)n(C)c1=O)c1cc2cc(Cl)ccc2[nH]c1=O
GI50 [1]: 20.3 µM | TGI [1]: 73.7 µM | GI50 [2]: 19.4 µM | TGI [2]: 54.2 µM | GI50 [3]: 12.7 µM | TGI [3]: 30.1 µM | GI50 [4]: 30.8 µM | TGI [4]: > 100 µM | GI50 [5]: 33.8 µM | TGI [5]: > 100 µM | GI50 [6]: 13.6 µM | TGI [6]: 36.8 µM | GI50 [7]: 24 µM | TGI [7]: > 100 µM | GI50 [8]: 20.9 µM | TGI [8]: 35.3 µM | GI50 [9]: 36.2 µM | TGI [9]: > 100 µM | GI50 [10]: 26.4 µM | TGI [10]: 70.7 µM | GI50 [11]: 27.7 µM | TGI [11]: > 100 µM | GI50 [12]: 21.4 µM | TGI [12]: 74 µM | GI50 [13]: 13 µM | TGI [13]: 31 µM | GI50 [14]: 17.8 µM | TGI [14]: 40.7 µM | GI50 [15]: 22.8 µM | TGI [15]: 90.1 µM | GI50 [16]: 27.9 µM | TGI [16]: > 100 µM | GI50 [17]: 31.2 µM | TGI [17]: > 100 µM | GI50 [18]: 11.4 µM | TGI [18]: 24.4 µM | GI50 [19]: 31.4 µM | TGI [19]: > 100 µM | GI50 [20]: 29.6 µM | TGI [20]: 98 µM | GI50 [21]: 31.1 µM | TGI [21]: > 100 µM | GI50 [22]: 16.1 µM | TGI [22]: 49.6 µM | GI50 [23]: 15.4 µM | TGI [23]: 29 µM | GI50 [24]: 41.6 µM | TGI [24]: > 100 µM | GI50 [25]: 30.6 µM | TGI [25]: 69.6 µM | GI50 [26]: 32.3 µM | TGI [26]: > 100 µM | GI50 [27]: 25.9 µM | TGI [27]: 60.7 µM | GI50 [28]: 27.6 µM | TGI [28]: > 100 µM | GI50 [29]: 20.6 µM | TGI [29]: 38.4 µM | GI50 [30]: 35.1 µM | TGI [30]: > 100 µM | GI50 [31]: 52.9 µM | TGI [31]: > 100 µM | GI50 [32]: 25.3 µM | TGI [32]: 75.8 µM | GI50 [33]: 16.4 µM | TGI [33]: 52.3 µM | GI50 [34]: 29.4 µM | TGI [34]: > 100 µM | GI50 [35]: 26.7 µM | TGI [35]: 78.8 µM | GI50 [36]: 29.3 µM | TGI [36]: > 100 µM | GI50 [37]: 16.4 µM | TGI [37]: 42.9 µM | GI50 [38]: 46 µM | TGI [38]: > 100 µM | GI50 [39]: 29.3 µM | TGI [39]: > 100 µM | GI50 [40]: 60.8 µM | TGI [40]: > 100 µM | GI50 [41]: 34.5 µM | TGI [41]: > 100 µM | GI50 [42]: 22.2 µM | TGI [42]: 86.9 µM | GI50 [43]: 61.4 µM | TGI [43]: > 100 µM | GI50 [44]: 36.2 µM | TGI [44]: 94 µM | GI50 [45]: 39.1 µM | TGI [45]: > 100 µM | GI50 [46]: 17 µM | TGI [46]: 42.8 µM | GI50 [47]: 32.5 µM | TGI [47]: > 100 µM | GI50 [48]: 31.4 µM | TGI [48]: > 100 µM | GI50 [49]: 33.2 µM | TGI [49]: > 100 µM | GI50 [50]: 42.6 µM | TGI [50]: > 100 µM | GI50 [51]: 26.3 µM | TGI [51]: > 100 µM | GI50 [52]: 19.1 µM | TGI [52]: 53 µM | GI50 [53]: 19.9 µM | TGI [53]: 76.1 µM | GI50 [54]: 19.3 µM | TGI [54]: 52 µM | GI50 [55]: 20.1 µM | TGI [55]: 39.4 µM | GI50 [56]: 34 µM | TGI [56]: > 100 µM | GI50 [57]: 12.4 µM | TGI [57]: 25.1 µM | GI50 [58]: 19.8 µM | TGI [58]: 48.6 µM
